In general, IC50 refers to the concentration at which inhibition is half-maximal.

Where only a bound is given, the exact number is not on record here.

This experiment has as its target Complement factor D (Homo sapiens, UniProt P00746). The experiment is described as follows: Factor D Assay: Human factor D (purified from human serum, Complement Technology, Inc.) at 80 nM final concentration is incubated with test compound at various concentrations for 5 minutes at room temperature in 50 mM Tris, 1M NaCl, pH 7.5. A synthetic substrate Z-L-Lys-SBz1 and DTNB (Ellman's reagent) are added to final concentrations of 100 μM each. The increase in color is recorded at OD405 nm in a microplate in kinetic mode over 30 minutes with 30 second time points in a spectrofluorimeter. IC50 values are calculated by non-linear regression from the percentage of inhibition of complement factor D activity as a function of test compound concentration.

Complement factor D, sequence (P00746 whole entry): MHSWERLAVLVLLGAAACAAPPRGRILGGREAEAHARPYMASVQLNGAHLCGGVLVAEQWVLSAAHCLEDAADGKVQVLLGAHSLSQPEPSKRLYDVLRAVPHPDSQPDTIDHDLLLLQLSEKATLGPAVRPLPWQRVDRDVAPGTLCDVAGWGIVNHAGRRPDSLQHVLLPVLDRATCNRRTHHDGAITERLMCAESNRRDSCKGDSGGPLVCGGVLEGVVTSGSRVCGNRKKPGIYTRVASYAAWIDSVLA

For the molecule `CC(=O)c1cn(CC(=O)N2C[C@H](F)C[C@H]2C(=O)Nc2cccc(Br)n2)c2ccc(Nc3cncc(F)c3)cc12`, the 50% inhibitory concentration (IC50) was < 1000 nM.

Source of the values: ChEMBL document CHEMBL5725933, “Amino compounds for treatment of complement mediated disorders” (2017).
